From patent US11891352B2, “Aminomethyl-functionalized denatonium derivatives, their preparation and use” (Julius-Maximilians-Universitaet Wuerzburg, priority 2018, dated 2024)

Test: Stability of amino-functionalized denatonium derivatives (LC/MS measurements)
Format: physicochemical
Excerpt: The decomposition of the substance is illustrated as follows: […]

## CC[N+](CC)(CC(=O)Nc1c(C)cccc1C)Cc1ccc(N)cc1 [derivative (1)]
  stability: not stable
